The results in this text go back to patent publication US20090042905A1, “TRIAZOLE DERIVATIVES AS LIGANDS OF G-PROTEIN COUPLED RECEPTORS” (AETERNA ZENTARIS GmbH, priority 2007, published 2009).

Like-named read-outs stand apart in the source and are kept apart here.

The subject of the experiment is male C57BL/6J mice. Description: Fasting-induced feeding behavior (food intake) of mice. Type of experiment: in vivo. The following applies: oral dose 2 μmol per mouse, 30 min before food. The protocol:
The effectiveness of selected compounds of the invention on fasting-induced feeding behavior of mice was investigated.
The experiments were performed according to Asakawa A et al. (Asakawa A et al., Gut 2003, 52: 947-952) with the following technical details:
Preparation of compounds of the invention: dissolved in dimethylsulfoxide (DMSO) and then diluted in distilled water (i.e. 0.5, 1 and 10% DMSO for 0.5, 1 and 2 μmol/mouse, respectively);
Preparation of reference substance (positive control) sibutramine: dissolved in distilled water;
Control substance (negative vehicle control): 10% DMSO in distilled water (compounds of the invention); distilled water (sibutramine);
Route of administration: p.o.;
Pretreatment time: 30 min before presenting the food to the animals;
Volume of administration: 0.5 ml/mouse;
Animals: male C57BL/6J mice;
Body weight range: 18.3-21.4 g

[1] abbreviates: 20 min, read-out: change of food intake - compounds versus vehicle treated negative control, at 20 min.
Setting [2] is: 1 h, read-out: change of food intake - compounds versus vehicle treated negative control, at 1 h.
Where [3] appears, read: 2 h, read-out: change of food intake - compounds versus vehicle treated negative control, at 2 h.
Where [4] appears, read: 4 h, read-out: change of food intake - compounds versus vehicle treated negative control, at 4 h.

With `COc1ccc(Cn2c(CCc3ccccc3)nnc2[C@@H](Cc2c[nH]c3ccccc23)NC(=O)C2CCNCC2)c(OC)c1` [Compound 62, (R)-N-(1-(4-(2,4-dimethoxybenzyl)-5-phenethyl-4H-1,2,4-triazol-3-yl)-2-(1H-indol-3-yl)ethyl)piperidine-4-carboxamide], the change in vivo at 2 µmol/mouse is 56% under setting [1], 68% under setting [2], 50% under setting [3] and 26% under setting [4].

Take `COc1ccc(Cn2c(CCc3ccccc3)nnc2[C@@H](Cc2c[nH]c3ccccc23)NC(=O)C(C)(C)N)c(OC)c1` [Compound 179, N-((R)-1-(4-(2,4-dimethoxybenzyl)-5-phenethyl-4H-1,2,4-triazol-3-yl)-2-(1H-indol-3-yl)ethyl)-2-amino-2-methylpropanamide]: the change in vivo at 2 µmol/mouse is -25% under setting [1], -39% under setting [2], -40% under setting [3] and -38% under setting [4].

Consider `COc1ccc(Cn2c(CCc3ccccc3)nnc2[C@@H](Cc2c[nH]c3ccccc23)NC(=O)[C@H]2CCCCN2)cc1` [Compound 49, (R)-N-((R)-1-(4-(4-methoxybenzyl)-5-phenethyl-4H-1,2,4-triazol-3-yl)-2-(1H-indol-3-yl)ethyl)piperidine-2-carboxamide], for which the change in vivo at 2 µmol/mouse reads like this: under setting [1], -59%; under setting [2], -48%; under setting [3], -39%; under setting [4], -23%.

With `CC(C)(N)C(=O)N[C@H](Cc1c[nH]c2ccccc12)c1nnc(Cc2ccccc2)n1Cc1ccc(Cl)c(Cl)c1` [Compound 118, (R)-N-(1-(4-(3,4-dichlorobenzyl)-5-benzyl-4H-1,2,4-triazol-3-yl)-2-(1H-indol-3-yl)ethyl)-2-amino-2-methylpropanamide], the change in vivo at 2 µmol/mouse is -31% under setting [1], -30% under setting [2], -25% under setting [3] and -24% under setting [4].

On to `COc1ccc(Cn2c(CCc3c[nH]c4ccccc34)nnc2[C@@H](Cc2c[nH]c3ccccc23)NC(=O)[C@@H]2C=CCN2)cc1` [Compound 190, (2S)-N-((R)-1-(5-(2-(1H-indol-3-yl)ethyl)-4-(4-methoxybenzyl)-4H-1,2,4-triazol-3-yl)-2-(1H-indol-3-yl)ethyl)-2,5-dihydro-1H-pyrrole-2-carboxamide], for which the change in vivo at 2 µmol/mouse runs as follows: under setting [1], -39%; under setting [2], -30%; under setting [3], -33%; under setting [4], -30%.

As for `Cc1ccc(Cn2c(CCc3ccccc3)nnc2[C@@H](Cc2c[nH]c3ccccc23)NC(=O)C(C)(C)N)cc1` [Compound 37, (R)-N-(1-(4-(4-methylbenzyl)-5-phenethyl-4H-1,2,4-triazol-3-yl)-2-(1H-indol-3-yl)ethyl)-2-amino-2-methylpropanamide], the change in vivo at 2 µmol/mouse is -37% under setting [1], -49% under setting [2], -51% under setting [3] and -34% under setting [4].

Turning to `COc1ccc(Cn2c(CCc3ccccc3)nnc2[C@@H](Cc2c[nH]c3ccccc23)NC(=O)[C@@H]2CCCCN2)cc1` [Compound 48, (S)-N-((R)-1-(4-(4-methoxybenzyl)-5-phenethyl-4H-1,2,4-triazol-3-yl)-2-(1H-indol-3-yl)ethyl)piperidine-2-carboxamide], the change in vivo at 2 µmol/mouse under setting [1] was -22%, the change in vivo at 2 µmol/mouse under setting [2] is -30%, the change in vivo at 2 µmol/mouse under setting [3] is -27% and the change in vivo at 2 µmol/mouse under setting [4] was -21%.

`COc1ccc(Cn2c(CCc3ccccc3)nnc2[C@@H](Cc2c[nH]c3ccccc23)NC(=O)c2cnccn2)c(OC)c1` [Compound 66, (R)-N-(1-(4-(2,4-dimethoxybenzyl)-5-phenethyl-4H-1,2,4-triazol-3-yl)-2-(1H-indol-3-yl)ethyl)pyrazine-2-carboxamide]: the change in vivo at 2 µmol/mouse is, setting by setting: under setting [1], -56%; under setting [2], -40%; under setting [3], -45%; under setting [4], -51%.

As to `CC(C)(N)C(=O)N[C@H](Cc1c[nH]c2ccccc12)c1nnc(CCc2c[nH]c3ccccc23)n1Cc1cccc2ccccc12` [Compound 5, (R)-N-(1-(5-(2-(1H-indol-3-yl)ethyl)-4-(naphthalen-1-ylmethyl)-4H-1,2,4-triazol-3-yl)-2-(1H-indol-3-yl)ethyl)-2-amino-2-methylpropanamide], the change in vivo at 2 µmol/mouse is -56% under setting [1], -58% under setting [2], -53% under setting [3] and -51% under setting [4].

With `CC(C)(N)C(=O)N[C@H](Cc1c[nH]c2ccccc12)c1nnc(CCc2c[nH]c3ccccc23)n1Cc1ccc(Cl)c(Cl)c1` [Compound 28, (R)-N-(1-(5-(2-(1H-indol-3-yl)ethyl)-4-(3,4-dichlorobenzyl)-4H-1,2,4-triazol-3-yl)-2-(1H-indol-3-yl)ethyl)-2-amino-2-methylpropanamide], the change in vivo at 2 µmol/mouse is, setting by setting: under setting [1], -17%; under setting [2], -28%; under setting [3], -21%; under setting [4], -18%.

Consider `O=C(N[C@H](Cc1c[nH]c2ccccc12)c1nnc(CCc2ccccc2)n1-c1ccccc1)C1CCNCC1` [Compound 142, N-((R)-2-(1H-indol-3-yl)-1-(5-phenethyl-4-phenyl-4H-1,2,4-triazol-3-yl)ethyl)piperidine-4-carboxamide], for which the change in vivo at 2 µmol/mouse is -56% under setting [1], -57% under setting [2], -55% under setting [3] and -49% under setting [4].

For `CC(C)(N)C(=O)N[C@H](Cc1c[nH]c2ccccc12)c1nnc(CCc2ccccc2)n1CCc1ccccc1` [Compound 117, (R)-N-(1-(4,5-diphenethyl-4H-1,2,4-triazol-3-yl)-2-(1H-indol-3-yl)ethyl)-2-amino-2-methylpropanamide], the change in vivo at 2 µmol/mouse is, setting by setting: under setting [1], -31%; under setting [2], -24%; under setting [3], -11%; under setting [4], -6%.

For `COc1ccc(Cn2c(CCc3c[nH]c4ccccc34)nnc2[C@@H](Cc2c[nH]c3ccccc23)NC(=O)C2CCNCC2)c(OC)c1` [Compound 31, (R)-N-(1-(5-(2-(1H-indol-3-yl)ethyl)-4-(2,4-dimethoxybenzyl)-4H-1,2,4-triazol-3-yl)-2-(1H-indol-3-yl)ethyl)piperidine-4-carboxamide], the change in vivo at 2 µmol/mouse was 50% under setting [1], 20% under setting [2], 16% under setting [3] and 9% under setting [4].

In the case of `COc1ccc(Cn2c(CCc3c[nH]c4ccccc34)nnc2[C@@H](Cc2c[nH]c3ccccc23)NC(=O)C2CCNCC2)cc1` [Compound 45, (R)-N-(1-(5-(2-(1H-indol-3-yl)ethyl)-4-(4-methoxybenzyl)-4H-1,2,4-triazol-3-yl)-2-(1H-indol-3-yl)ethyl)piperidine-4-carboxamide], the change in vivo at 2 µmol/mouse was -36% under setting [1], -28% under setting [2], -33% under setting [3] and -34% under setting [4].

Turning to `CC(C)(N)C(=O)N[C@H](Cc1c[nH]c2ccccc12)c1nnc(CCc2ccccc2)n1Cc1ccc(Cl)c(Cl)c1` [Compound 122, (R)-N-(1-(4-(3,4-dichlorobenzyl)-5-phenethyl-4H-1,2,4-triazol-3-yl)-2-(1H-indol-3-yl)ethyl)-2-amino-2-methylpropanamide], the change in vivo at 2 µmol/mouse was -52% under setting [1], -42% under setting [2], -28% under setting [3] and -16% under setting [4].

Regarding `CC(C)(N)C(=O)N[C@H](Cc1c[nH]c2ccccc12)c1nnc(CCc2ccccc2)n1Cc1cccc2ccccc12` [Compound 27, (R)-N-(2-(1H-indol-3-yl)-1-(4-(naphthalen-1-ylmethyl)-5-phenethyl-4H-1,2,4-triazol-3-yl)ethyl)-2-amino-2-methylpropanamide], the change in vivo at 2 µmol/mouse reads like this: under setting [1], -57%; under setting [2], -58%; under setting [3], -48%; under setting [4], -38%.

`CC(C)(N)C(=O)N[C@H](Cc1c[nH]c2ccccc12)c1nnc(CCCc2c[nH]c3ccccc23)n1Cc1cccc2ccccc12` [Compound 11, (R)-N-(1-(5-(3-(1H-indol-3-yl)propyl)-4-(naphthalen-1-ylmethyl)-4H-1,2,4-triazol-3-yl)-2-(1H-indol-3-yl)ethyl)-2-amino-2-methylpropanamide]: the change in vivo at 2 µmol/mouse by setting is: under setting [1], -56%; under setting [2], -65%; under setting [3], -55%; under setting [4], -55%.
